1 compound from US20260042764A1, “COMPOSITIONS AND METHODS FOR INHIBITION OF KRAS” (TheRas, Inc., priority 2022, published 2026) can be followed below.

Assay [1] has as its target T1, Avi-KRAS G12V (2-169) GTP/RAF1 RBD-3xFLAG (51-131) (Homo sapiens, UniProt P01116, G12V).
T1 construct: Avi-KRAS G12V (2-169)
The assay can be described thus: Raf1-KRAS G12V-GTP disruption HTRF assay (Biological Example 3). It is filed as binding. The following applies: KRAS G12V, GTP-loaded. The essentials:
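Compounds were titrated 10-point, 3-fold from 30 μM against preformed KRAS-GTP:RAF1 RBD (51-131) complexes at 50 nM, using KRAS 2-169 as WT, G12C, G12D or G12V. After 1 h at room temperature in Tris pH 7.5 buffer with MgCl2 and 10% DMSO, time-resolved fluorescence was read. Results are percent activity versus DMSO.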

For assay [2], the target named is T2, Avi-KRAS G12D (1-169) GppNHp/RAF1 RBD-3xFLAG (52-151) (Homo sapiens, UniProt P01116, G12D).
T2 construct: Avi-KRAS G12D (1-169)
T2 sequence (P01116 1-169 isoform P01116-2 G12D): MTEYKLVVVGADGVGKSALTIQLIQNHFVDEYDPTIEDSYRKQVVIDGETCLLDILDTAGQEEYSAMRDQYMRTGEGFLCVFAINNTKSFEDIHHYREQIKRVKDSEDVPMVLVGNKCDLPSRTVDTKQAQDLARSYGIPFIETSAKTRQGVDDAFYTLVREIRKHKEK
The assay can be described thus: Raf1-KRAS G12D-GppNHP disruption HTRF assay (Biological Example 1). It is filed as binding. As to conditions: KRAS G12D, GppNHp-loaded; class symbols. The gist of the method:
(§1)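 Read-out is HTRF signal of the KRAS–RAF1 RBD complex, reported as percentage of activity relative to DMSO (100%). Protein mix and detection reagents each incubated 1 h at room temperature with 700 rpm shaking. Buffer: 50 mM Tris pH 7.5, 100 mM NaCl, 5 mM MgCl2, 0.1% BSA, 0.01% Tween, 10% DMSO.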

Assay [3] deals with T3, Avi-KRAS G12R (1-169) GppNHp/RAF1 RBD-3xFLAG (52-151) (Homo sapiens, UniProt P01116, G12R).
T3 construct: Avi-KRAS G12R (1-169)
T3 sequence (P01116 1-169 isoform P01116-2 G12R): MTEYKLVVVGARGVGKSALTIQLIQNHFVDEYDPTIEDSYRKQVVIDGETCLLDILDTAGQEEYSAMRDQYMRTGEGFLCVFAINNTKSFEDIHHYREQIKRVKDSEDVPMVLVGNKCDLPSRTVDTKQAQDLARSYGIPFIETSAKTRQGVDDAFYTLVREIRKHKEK
As to the kind of experiment: Raf1-KRAS G12R-GppNHP disruption HTRF assay (Biological Example 1). It is filed as binding. The following applies: KRAS G12R, GppNHp-loaded; class symbols. The gist of the method: as §1
(In TR-FRET formats the signal depends on donor and acceptor labels being close together.)

The target of assay [4] is T4, Avi-KRAS WT (1-169) GppNHp/RAF1 RBD-3xFLAG (52-151) (Homo sapiens, UniProt P01116).
T4 construct: Avi-KRAS WT (1-169)
T4 sequence (P01116 1-169 isoform P01116-2): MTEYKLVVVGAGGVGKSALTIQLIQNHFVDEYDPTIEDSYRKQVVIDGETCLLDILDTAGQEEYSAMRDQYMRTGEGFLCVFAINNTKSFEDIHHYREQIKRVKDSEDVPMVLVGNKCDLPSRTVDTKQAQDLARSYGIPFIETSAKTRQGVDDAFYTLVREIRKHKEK
As to the kind of experiment: Raf1-KRAS WT-GppNHP disruption HTRF assay (Biological Example 1). The following applies: KRAS WT, GppNHp-loaded; class symbols. It is filed as binding. The gist of the method:
as §1

The test system of another assay is GP2d cells (KRAS G12D). The assay can be described thus: Cell-based pERK HTRF assay in GP2d cell (Biological Example 2). The following applies: GP2d, GP2d (KRAS G12D) cells. The essentials: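 Cells grown in DMEM with 10% FBS were exposed to compound for 60 min at 0.25% DMSO, using a 9-point half-log series starting at 1 μM or 100 nM. Lysates were then mixed with d2 and Eu cryptate antibodies for 4–24 h at room temperature, and pERK was read by HTRF.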

T1 sequence (P01116 2-169 isoform P01116-2 G12V): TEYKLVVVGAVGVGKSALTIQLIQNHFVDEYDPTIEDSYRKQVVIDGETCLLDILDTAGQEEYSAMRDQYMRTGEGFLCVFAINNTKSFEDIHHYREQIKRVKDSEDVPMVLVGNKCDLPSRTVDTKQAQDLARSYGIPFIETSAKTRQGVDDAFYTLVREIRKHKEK

One may read the IC50 as the midpoint of a concentration-inhibition curve. High values mean lower potency, low ones higher potency. With `Cc1c(C(=O)N2CCCC2)nn2c1CN(c1nc(OCC34CCCN3CC(F)C4)nc3c(F)c(-c4ccc(F)c5sc(N)c(C#N)c45)c(C(F)(F)F)cc13)CC2` (stereo not drawn) [Compound 744], the half-maximal inhibitory concentration (IC50) in assay [1] is 100 to 1000 nM; in assay [2], 100 to 1000 nM; in assay [3] it was 100 to 1000 nM; in assay [4], 100 to 1000 nM; in the assay on GP2d cells (KRAS G12D), less than 100 nM; in the assay on GP2d cells (KRAS G12D) (pERK HTRF, class symbols) it was less than 100 nM.
